# Results published in ChEMBL document CHEMBL1201862, “PubChem BioAssay data set” (2004).
#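 Results reflect a 48-hour exposure of cells in 96-well plates to compound at five concentrations. Abbreviation: GI50, concentration required for 50% inhibition of growth.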 Active and inactive are the calls of the source. No stated cut-off is given here; in the data, active = GI50 up to about 1.1 µM and inactive = higher.
# Columns and labels:
# Test in all cases: NCI-60 cell line screen, 48 h
# U-251 = system: U-251
# K562 = system: K562
# EKVX = system: EKVX
# MOLT-4 = system: MOLT-4
# OVCAR-5 = system: OVCAR-5
# HCT-116 = system: HCT-116
# SF-539 = system: SF-539
# SK-OV-3 = system: SK-OV-3
# KM12 = system: KM12
# UACC-62 = system: UACC-62
# HT-29 = system: HT-29
# OVCAR-3 = system: OVCAR-3
# SN12C = system: SN12C
# SF-268 = system: SF-268
# HCT-15 = system: HCT-15
# UO-31 = system: UO-31
# M14 = system: M14
# SK-MEL-28 = system: SK-MEL-28
# SW-620 = system: SW-620
# SK-MEL-2 = system: SK-MEL-2
SMILES,GI50 (U-251),GI50 (K562),GI50 (EKVX),GI50 (MOLT-4),GI50 (OVCAR-5),GI50 (HCT-116),GI50 (SF-539),GI50 (SK-OV-3),GI50 (KM12),GI50 (UACC-62),GI50 (HT-29),GI50 (OVCAR-3),GI50 (SN12C),GI50 (SF-268),GI50 (HCT-15) [µM],GI50 (UO-31),GI50 (M14),GI50 (SK-MEL-28),GI50 (SW-620),GI50 (SK-MEL-2)
CC(CN1CCN(CC(C)Nc2ccnc3cc(Cl)ccc23)CC1)Nc1ccnc2cc(Cl)ccc12 (configuration not stated),18.5 µM (inactive),2.84 µM (inactive),19 µM (inactive),9.38 µM (inactive),23.2 µM (inactive),13.4 µM (inactive),16 µM (inactive),34 µM (inactive),13.4 µM (inactive),17.9 µM (inactive),6.93 µM (inactive),22.8 µM (inactive),22.4 µM (inactive),2.81 µM (inactive),15.7,22.7 µM (inactive),14.5 µM (inactive),1.6 µM (inactive),–,–
Cc1nnc2nc(-c3ccc(Cl)cc3Cl)cc(-c3ccc(Cl)cc3)n12,> 100 µM (inactive),50.4 µM (inactive),–,15.5 µM (inactive),> 100 µM (inactive),> 100 µM (inactive),> 100 µM (inactive),> 100 µM (inactive),> 100 µM (inactive),> 100 µM (inactive),20.5 µM (inactive),50.1 µM (inactive),> 100 µM (inactive),83.9 µM (inactive),> 100,24.4 µM (inactive),> 100 µM (inactive),21 µM (inactive),> 100 µM (inactive),–
CCCNC(=O)NNC(=O)c1c[nH]c2nc(C)ccc2c1=O,> 100 µM (inactive),> 100 µM (inactive),> 100 µM (inactive),> 100 µM (inactive),> 100 µM (inactive),> 100 µM (inactive),–,–,> 100 µM (inactive),> 100 µM (inactive),> 100 µM (inactive),> 100 µM (inactive),> 100 µM (inactive),> 100 µM (inactive),> 100,> 100 µM (inactive),> 100 µM (inactive),> 100 µM (inactive),> 100 µM (inactive),> 100 µM (inactive)
COc1cc(OC)cc(Oc2nc3ccc(C(F)(F)F)cc3nc2-c2ccccc2)c1,> 100 µM (inactive),> 100 µM (inactive),> 100 µM (inactive),> 100 µM (inactive),> 100 µM (inactive),> 100 µM (inactive),> 100 µM (inactive),> 100 µM (inactive),> 100 µM (inactive),> 100 µM (inactive),60 µM (inactive),> 100 µM (inactive),–,> 100 µM (inactive),> 100,> 100 µM (inactive),–,> 100 µM (inactive),> 100 µM (inactive),–
O=C1N=CN=C2C=CC(Cl)=C(I)C12 (configuration not stated),74.3 µM (inactive),> 100 µM (inactive),9.4 µM (inactive),67.1 µM (inactive),> 100 µM (inactive),42.5 µM (inactive),–,49.3 µM (inactive),> 100 µM (inactive),45.3 µM (inactive),> 100 µM (inactive),63 µM (inactive),> 100 µM (inactive),20.2 µM (inactive),–,26.2 µM (inactive),> 100 µM (inactive),> 100 µM (inactive),> 100 µM (inactive),81.5 µM (inactive)
COC(=O)C1=Cc2c(OC)cc(OC)c(OC)c2[C@H](c2cc(OC)c(OC)cc2OC)C1C(=O)OC (some centres not stated),> 100 µM (inactive),20.1 µM (inactive),> 100 µM (inactive),> 100 µM (inactive),> 100 µM (inactive),> 100 µM (inactive),54.7 µM (inactive),> 100 µM (inactive),> 100 µM (inactive),> 100 µM (inactive),> 100 µM (inactive),> 100 µM (inactive),> 100 µM (inactive),> 100 µM (inactive),> 100,> 100 µM (inactive),> 100 µM (inactive),> 100 µM (inactive),> 100 µM (inactive),–
COc1ccc(C2=C(OC(C)=O)c3cccn3-c3ccccc3S2)cc1,–,–,–,4.06 µM (inactive),–,–,–,2.65 µM (inactive),2.62 µM (inactive),2.9 µM (inactive),2.19 µM (inactive),–,1.29 µM (inactive),> 10 µM (inactive),1.18,–,5.68 µM (inactive),3.66 µM (inactive),2.55 µM (inactive),–
CC(C)[C@H](CCl)NC(=O)c1cccc(C(=O)N[C@H](CCl)C(C)C)n1 (stereo in doubt),> 100 µM (inactive),> 100 µM (inactive),> 100 µM (inactive),> 100 µM (inactive),> 100 µM (inactive),> 100 µM (inactive),> 100 µM (inactive),> 100 µM (inactive),> 100 µM (inactive),–,> 100 µM (inactive),> 100 µM (inactive),> 100 µM (inactive),> 100 µM (inactive),> 100,> 100 µM (inactive),> 100 µM (inactive),> 100 µM (inactive),> 100 µM (inactive),–
